The test system of this assay is HeLa. Kind of assay: Antiproliferative activity against human HeLa cells by [3H]thymidine incorporation. The class given is functional, cell-based.

Regarding `CCC1(CC)CC[C@@]2(O[C@H]3C[C@H]4[C@@H]5CC[C@H]6C[C@H](O)CC[C@]6(C)[C@H]5[C@@H](O)C[C@]4(C)[C@H]3[C@@]2(C)O)O1`, the IC50 amounted to 3.6 µM.

Compound `CC1(C)C[C@@]2(O[C@H]3C[C@H]4[C@@H]5CC[C@H]6C[C@H](O)CC[C@]6(C)[C@H]5[C@@H](O)C[C@]4(C)[C@H]3[C@@]2(C)O)OC1(C)C` returned an IC50 of 0.2 µM.

In turn, `C[C@H]1C[C@@]2(O[C@H]3C[C@H]4[C@@H]5CC[C@H]6C[C@H](O)CC[C@]6(C)[C@H]5[C@@H](O)C[C@]4(C)[C@H]3[C@@]2(C)O)OC1(C)C` [HIPPURISTANOL] yielded an IC50 of 0.07 µM.

Consider `CC1(C)CO[C@@]2(C1)O[C@H]1C[C@H]3[C@@H]4CC[C@H]5C[C@H](O)CC[C@]5(C)[C@H]4[C@@H](O)C[C@]3(C)[C@H]1[C@@]2(C)O`, for which the IC50 was greater than 10 µM.

Regarding `C[C@]12CC[C@@H](O)C[C@@H]1CC[C@@H]1[C@@H]2[C@@H](O)C[C@@]2(C)[C@H]1C[C@@H]1O[C@]3(CCCCO3)[C@](C)(O)[C@@H]12`, the half-inhibitory concentration (IC50) is greater than 10 µM.

For `C[C@]12CC[C@@H](O)C[C@@H]1CC[C@@H]1[C@@H]2[C@@H](O)C[C@@]2(C)[C@H]1C[C@@H]1O[C@@]3(CCCCO3)[C@](C)(O)[C@@H]12`, the IC50 is 1.6 µM.

`CC1(C)C[C@@]2(O[C@H]3C[C@H]4[C@@H]5CC[C@H]6C[C@H](O)CC[C@]6(C)[C@H]5[C@@H](O)C[C@]4(C)[C@H]3[C@]2(C)O)OC1(C)C` yielded an IC50 greater than 10 µM.

On to `CC1(C)C[C@]2(O[C@H]3C[C@H]4[C@@H]5CC[C@H]6C[C@H](O)CC[C@]6(C)[C@H]5[C@@H](O)C[C@]4(C)[C@H]3[C@@]2(C)O)OC1(C)C`, for which half-maximal inhibition (IC50) required 2.2 µM.

The compound `CC1(C)CCC[C@]2(O[C@H]3C[C@H]4[C@@H]5CC[C@H]6C[C@H](O)CC[C@]6(C)[C@H]5[C@@H](O)C[C@]4(C)[C@H]3[C@@]2(C)O)O1` came in with an IC50 of 4.9 µM.

Regarding `CC1(C)CO[C@]2(C1)O[C@H]1C[C@H]3[C@@H]4CC[C@H]5C[C@H](O)CC[C@]5(C)[C@H]4[C@@H](O)C[C@]3(C)[C@H]1[C@@]2(C)O`, the IC50 was greater than 10 µM.

Take `CCC1(CC)CC[C@]2(O[C@H]3C[C@H]4[C@@H]5CC[C@H]6C[C@H](O)CC[C@]6(C)[C@H]5[C@@H](O)C[C@]4(C)[C@H]3[C@@]2(C)O)O1`: the IC50 is greater than 10 µM.

`CC1(C)CCC[C@@]2(O[C@H]3C[C@H]4[C@@H]5CC[C@H]6C[C@H](O)CC[C@]6(C)[C@H]5[C@@H](O)C[C@]4(C)[C@H]3[C@@]2(C)O)O1` had a 50% inhibitory concentration (IC50) of 0.6 µM.

The values above are taken from ChEMBL document CHEMBL1157758, “Structural and stereochemical requirements of the spiroketal group of hippuristanol for antiproliferative activity” (Bioorg Med Chem Lett, 2010).
